{
  "source": "patent EP1094711B1",
  "about": "“METHODS FOR ERADICATION OF NANOBACTERIA” (Nanobac Oy, priority 1998, dated 2000)",
  "key": {"nanobacteria [1]": {"test_system": "nanobacteria", "test": "Antibiotic sensitivity test by Minimal Inhibition Concentration (MIC), 96-well plates, absorbance at 650 nm", "type": "cell-based", "details": "culture medium, 37° Celsius"}, "nanobacteria [2]": {"test_system": "nanobacteria", "test": "Antibiotic sensitivity test by Minimal Inhibition Concentration (MIC), 96-well plates, absorbance at 650 nm", "type": "cell-based", "details": "for MIC 50: 50% inhibition; for MIC 50 / MIC 90: DMEM with 10% gamma-irradiated FBS; for antinanobacterial effect in the in vitro test (in words): in vitro MIC test", "method": "Antibiotic sensitivity tests were carried out by measuring Minimal Inhibition Concentration (MIC), a common practice in clinical microbiology.\nThe tests were performed in 96-well plates. DMEM (commercial cell culture medium) containing 10% gamma-irradiated fetal bovine serum (FBS)(dose about 3 Mrads; this treatment inactivates nanobacteria in the serum so that the basic medium is sterile) was used as the basic culture medium. These components are commercially available, e.g., from Gibco. The antibiotic stock solutions were sterile filtered through 0.2 micrometer filters. The stock solutions were then serially diluted (into the basal culture medium) to provide a final starting concentration of 0.5 mg/ml and 1:2 dilutions therefrom, unless otherwise specified. For each antibiotic three parallel tests were performed using all the antibiotic dilutions and, additionally, positive and negative control experiments. […] 100 µl of dilutions of the nanobacteria inoculum were added to all wells except the negative controls. The plates were incubated at mammalian cell culture conditions (37° Celsius, 5% carbon dioxide, 95% humid air). The absorbance values at 650 nm were recorded by using an ELISA reader at the start, and at 4, 8, 12, 14 days. […] Calculations were based on absorbance curves where absorbance was plotted against concentration of the antibiotic."}, "nanobacteria [3]": {"test_system": "nanobacteria", "test": "Nanobacterial growth and biofilm formation on stents with metal ions in the culture medium", "type": "cell-based", "details": "salts added to the culture medium", "source_text": "Nanobacteria also absorb some heavy metals. Nanobacteria can be stained well with silver or copper compounds. […] Silver and copper parts or platings on surfaces, such as catheters or stents, can provide an antinanobacterial effect by preventing nanobacterial biofilm formation. In in vitro tests nanobacteria avidly formed biofilm on two different commercial stents made of a plastic type of material. This biofilm formation was prevented by the addition of silver or copper salts to the culture medium."}, "SF-nanobacteria": {"test_system": "SF-nanobacteria", "test": "Chemical disinfection of SF-nanobacteria", "type": "cell-based", "parameters": "key to Resistance of SF-nanobacteria to chemical disinfectants (survival) / partial or total detachment on exposure: +++: No effect; ++: Reduced survival; +: Markedly reduced survival; - : No survival; * = partial or total detachment on exposure", "details": "room temperature, survival after subculture compared to diluent only", "source_text": "The cultures were exposed to the disinfectants after removal of the culture medium. For the autoclaving, UV, microwave, and drying treatments, the medium was removed and an equal amount of PBS used instead. For the heat treatments, the SF-nanobacteria were harvested by scraping the culture vessel followed by centrifugation of the medium. The obtained pellet was suspended in PBS and used in the test. After treatments the SF-nanobacteria were subcultured in DMEM medium and the growth followed by light microscopy to see the adherence and typical mineralization.\nThe concentrations of the chemicals used were those commonly used for disinfection or as instructed by the manufacturer. The chemicals included 70% ethanol, 2% glutaraldehyde, 4% formaldehyde, 0.5% hypochlorite, 3% hydrogen peroxide, 1M hydrochloric acid (HCl), 1M sodium hydroxide (NaOH) , 1% sodium dodecyl sulfate (SDS), 1% Tween 80, 1 % Triton X-100, 3M guanidium-hydrochloride, 3M urea, 1% Virkon® (Antec International Ltd., Suffolk, England; 100% product contains 50% potassium persulfate, 5% sulfaminoic acid), 1.5% Erifenol® (Orion OY, Finland; 100% product contains <5% NaOH, <5% o-benzyl-p-chlorophenol, 5-15% p-chloro-m-cresol), 1% Klorilli® (Orion OY, Finland; 100% product contains sodium metasilicate, sodium N-chloro-p-toluenesulfonamide-3-hydrate and 20,000 ppm active chlorine), and 3% Buraton® (Schülke & Mayr, Germany; 100% product contains 4.5% formaldehyde, 6.8% glyoxal, 1.5% glyoxylic acid, 6% dimethylaurylbenzyl-ammonium chloride). The dilutions to be used were freshly prepared on the day of exposure in sterile distilled water. As a positive control, only diluent was used. Negative control contained only culture medium.\nThe SF-nanobacteria were exposed to the chemicals for 10 and 30 minutes at room temperature after removal of the culture medium. After exposure, the disinfectant solution was removed and fresh medium added (with a neutralization step in the case of HCl and NaOH). If any significant deattachment occurred, nanobacteria were recovered by centrifugation, and subcultured. The exposed serum-free cultures were passaged 1:10 after 48 hours and the growth was followed by light microscopy for three weeks."}, "serum nanobacteria": {"test_system": "serum nanobacteria", "test": "Antibiotic sensitivity test of serum nanobacteria with cell culture antibiotics", "type": "cell-based", "details": "100 µg/ml, one month, medium containing 10% fetal bovine serum", "method": "Nanobacteria were cultured with 10% fetal bovine serum in DMEM medium (serum nanobacteria) for one month at 37°C in an atmosphere of 5% CO2 - 95% air. The cultures were harvested by centrifugation. For the autoclaving, UV, microwave, heating and drying treatments, the harvested nanobacteria were suspended in phosphate buffered saline (pH 7.4; PBS). After treatments, subculturing of the nanobacteria was made in 10% gamma irradiated fetal bovine serum in DMEM medium. The growth of serum nanobacteria was followed by light microscopy and absorbance measurement with a spectrophotometer at 650 nm.\nThe 1× concentrations are those recommended for cell culture. […]"}, "nanobacteria [4]": {"test_system": "nanobacteria", "test": "Treatment of human patients infected with nanobacteria", "details": "person with chronic fatigue syndrome; 500 mg 4 times per day for one month; after one month therapy"}, "nanobacteria [5]": {"test_system": "nanobacteria", "details": "Kajander et al. 1997; cited from earlier work"}, "[6]": {"details": "90% inhibition, 12 day time point"}},
  "note": "Counter-ions that a name gives are not always drawn.",
  "data": [
    {"molecule": "Doxycycline", "values": [
      {"measurement": "stability under the test conditions", "setting": "nanobacteria [1]", "value": "not stable"},
      {"measurement": "MIC 50", "setting": "nanobacteria [2]; 12 day time point", "value": 50, "unit": "µg/mL"},
      {"measurement": "MIC 90", "setting": "nanobacteria [2]; [6]", "value": 80, "unit": "µg/mL"},
      {"measurement": "antinanobacterial effect in the in vitro test (in words)", "setting": "nanobacteria [2]", "value": "effective on inhibiting nanobacterial growth"}
    ]},
    {"molecule": "[Cu]", "note": "[copper]", "values": [
      {"measurement": "biofilm formation on commercial stents", "setting": "nanobacteria [3]", "value": "prevented"}
    ]},
    {"molecule": "silver", "values": [
      {"measurement": "biofilm formation on commercial stents", "setting": "nanobacteria [3]", "value": "prevented"}
    ]},
    {"molecule": "Triton X-100 [1 % Triton X-100]", "values": [
      {"measurement": "Resistance of SF-nanobacteria to chemical disinfectants (survival)", "setting": "SF-nanobacteria; Exposure time 10 min", "value": "+++"},
      {"measurement": "Resistance of SF-nanobacteria to chemical disinfectants (survival)", "setting": "SF-nanobacteria; Exposure time 30 min", "value": "+++"}
    ]},
    {"molecule": "Gentamycin", "values": [
      {"measurement": "morphology of nanobacteria in SEM", "setting": "serum nanobacteria", "value": "changes in the morphology"},
      {"measurement": "MIC 50", "setting": "nanobacteria [2]; 12 day time point", "value": 60, "unit": "µg/mL"},
      {"measurement": "MIC 90", "setting": "nanobacteria [2]; [6]", "value": 250, "unit": "µg/mL"},
      {"measurement": "antinanobacterial effect in the in vitro test (in words)", "setting": "nanobacteria [2]", "value": "bacteriostatic effects at high antibiotic concentrations"}
    ]},
    {"molecule": "hydrogen peroxide [3% H2O2]", "values": [
      {"measurement": "Resistance of SF-nanobacteria to chemical disinfectants (survival)", "setting": "SF-nanobacteria; Exposure time 10 min", "value": "+++"},
      {"measurement": "Resistance of SF-nanobacteria to chemical disinfectants (survival)", "setting": "SF-nanobacteria; Exposure time 30 min", "value": "+++"}
    ]},
    {"molecule": "CCO", "note": "[70% ethanol, ethanol]", "values": [
      {"measurement": "Resistance of SF-nanobacteria to chemical disinfectants (survival)", "setting": "SF-nanobacteria; Exposure time 10 min", "value": "+++"},
      {"measurement": "Resistance of SF-nanobacteria to chemical disinfectants (survival)", "setting": "SF-nanobacteria; Exposure time 30 min", "value": "+++"}
    ]},
    {"molecule": "CN(C)[C@@H]1C(O)=C(C(N)=O)C(=O)[C@@]2(O)C(O)=C3C(=O)c4c(O)cccc4[C@@](C)(O)[C@H]3C[C@@H]12", "note": "[tetracycline HCl]", "values": [
      {"measurement": "nanobacteria status of the patient (urine and serum samples)", "setting": "nanobacteria [4]", "value": "nanobacteria negative"}
    ]},
    {"molecule": "O=C(O)CN(CCN(CC(=O)O)CC(=O)O)CC(=O)O", "note": "[EDTA, ethylenediaminetetraacetic acid]", "values": [
      {"measurement": "effect on growth of nanobacteria", "setting": "nanobacteria [5]", "value": "inhibts growth"},
      {"measurement": "IC90", "setting": "nanobacteria [2]; 288 h, 90% inhibition, 12 day time point, read-out: MIC 90", "value": 2500, "unit": "µM"},
      {"measurement": "IC50", "setting": "nanobacteria [2]; 288 h, read-out: MIC 50", "value": 300, "unit": "µM"},
      {"measurement": "antinanobacterial effect in the in vitro test (in words)", "setting": "nanobacteria [2]", "value": "antinanobacterial effects"}
    ]},
    {"molecule": "NC(N)=O", "note": "[3M Urea, urea]", "values": [
      {"measurement": "Resistance of SF-nanobacteria to chemical disinfectants (survival)", "setting": "SF-nanobacteria; Exposure time 10 min", "value": "+++"},
      {"measurement": "Resistance of SF-nanobacteria to chemical disinfectants (survival)", "setting": "SF-nanobacteria; Exposure time 30 min", "value": "+++"}
    ]}
  ]
}
